Results published in ChEMBL document CHEMBL1201861, “Genomics of Drug Sensitity in Cancer screening data, Wellcome Trust Sanger Institute”.

Tests used:
Assay in all cases: cells
[1] = tested on: SNU-449; format: functional, cell-based, Homo sapiens; details: Homo sapiens, SNU-449
Description: SANGER: Inhibition of human SNU-449 cell growth in a cell viability assay.

[2] = tested on: UO-31; format: functional, cell-based; details: Homo sapiens;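 further: cell viability assay measuring inhibition of cell growth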
Description: SANGER: Inhibition of human U031 cell growth in a cell viability assay.

[3] = tested on: ML-2; format: functional, cell-based; details: Homo sapiens;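 further: growth inhibition of ML-2 cells, measured with a cell viability readout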
Description: SANGER: Inhibition of human ML-2 cell growth in a cell viability assay.

[4] = tested on: EW-13; format: functional, cell-based; details: Homo sapiens;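 further: growth inhibition of EW-13 cells, read out with a cell viability assay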
Description: SANGER: Inhibition of human EW-13 cell growth in a cell viability assay.

[5] = tested on: 5637; format: functional, cell-based, Homo sapiens; details: Homo sapiens
Description: SANGER: Inhibition of human 5637 cell growth in a cell viability assay.

[6] = tested on: OVCAR-4; format: functional, cell-based, Homo sapiens; details: Homo sapiens, OVCAR-4;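 further: growth inhibition of human OVCAR-4 cells, measured with a cell viability assay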
Description: SANGER: Inhibition of human OVCAR-4 cell growth in a cell viability assay.

[7] = tested on: NCI-H226; format: functional, cell-based, Homo sapiens; details: Homo sapiens, NCI-H226;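 further: cell viability read-out used to gauge growth inhibition of the cells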
Description: SANGER: Inhibition of human NCI-H226 cell growth in a cell viability assay.

[8] = tested on: VA-ES-BJ; format: functional, cell-based, Homo sapiens; details: Homo sapiens, VA-ES-BJ;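 further: growth inhibition of the VA-ES-BJ cell line, read out by a cell viability assay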
Description: SANGER: Inhibition of human VA-ES-BJ cell growth in a cell viability assay.

[9] = tested on: COR-L105; format: functional, cell-based, Homo sapiens; details: Homo sapiens, COR-L105;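 further: cell growth inhibition determined with a viability assay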
Description: SANGER: Inhibition of human COR-L105 cell growth in a cell viability assay.

[10] = tested on: KGN; format: functional, cell-based, Homo sapiens; details: Homo sapiens, KGN;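 further: growth inhibition of KGN cells, read out with a cell viability assay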
Description: SANGER: Inhibition of human KGN cell growth in a cell viability assay.

[11] = tested on: ES8; format: functional, cell-based, Homo sapiens; details: Homo sapiens, ES8;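 further: growth inhibition of human ES8 cells, read out with a cell viability assay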
Description: SANGER: Inhibition of human ES8 cell growth in a cell viability assay.

[12] = tested on: IGROV-1; format: functional, cell-based, Homo sapiens; details: Homo sapiens, IGROV-1;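 further: reduction of IGROV-1 cell growth, read out with a viability assay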
Description: SANGER: Inhibition of human IGROV-1 cell growth in a cell viability assay.

[13] = tested on: LB2518-MEL; format: functional, cell-based, Homo sapiens; details: Homo sapiens, LB2518-MEL;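 further: growth inhibition of human LB2518-MEL cells, measured with a cell viability assay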
Description: SANGER: Inhibition of human LB2518-MEL cell growth in a cell viability assay.

[14] = tested on: KU812 cell line; format: functional, cell-based; details: Homo sapiens;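 further: growth inhibition of KU812 cells, read out with a cell viability assay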
Description: SANGER: Inhibition of human KU812 cell growth in a cell viability assay.

[15] = tested on: CHP-212; format: functional, cell-based, Homo sapiens; details: Homo sapiens, CHP-212
Description: SANGER: Inhibition of human CHP-212 cell growth in a cell viability assay.

[16] = tested on: IST-SL1; format: functional, cell-based, Homo sapiens; details: Homo sapiens, IST-SL1;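 further: growth inhibition of human IST-SL1 cells, read out with a cell viability assay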
Description: SANGER: Inhibition of human IST-SL1 cell growth in a cell viability assay.

[17] = tested on: MFE-280; format: functional, cell-based, Homo sapiens; details: Homo sapiens, MFE-280;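 further: growth inhibition of MFE-280 cells, determined with a cell viability readout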
Description: SANGER: Inhibition of human MFE-280 cell growth in a cell viability assay.

[18] = tested on: SH-4; format: functional, cell-based, Homo sapiens; details: Homo sapiens, SH-4;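 further: growth inhibition of SH-4 cells, read out with a cell viability assay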
Description: SANGER: Inhibition of human SH-4 cell growth in a cell viability assay.

[19] = tested on: KS-1; format: functional, cell-based, Homo sapiens; details: Homo sapiens, KS-1;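 further: growth inhibition of KS-1 cells, read out with a cell viability assay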
Description: SANGER: Inhibition of human KS-1 cell growth in a cell viability assay.

[20] = tested on: OCUB-M; format: functional, cell-based, Homo sapiens; details: Homo sapiens, OCUB-M;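 further: growth inhibition of the cancer cell line, read out through a cell viability assay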
Description: SANGER: Inhibition of human OCUB-M cell growth in a cell viability assay.

[21] = tested on: NOMO-1; format: functional, cell-based; details: Homo sapiens;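 further: growth inhibition of human NOMO-1 cells measured by a cell viability assay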
Description: SANGER: Inhibition of human NOMO-1 cell growth in a cell viability assay.

[22] = tested on: KE-37; format: functional, cell-based; details: Homo sapiens;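 further: growth inhibition of KE-37 cells, read out with a cell viability assay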
Description: SANGER: Inhibition of human KE-37 cell growth in a cell viability assay.

[23] = tested on: MC116; format: functional, cell-based; details: Homo sapiens;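 further: growth inhibition of MC116 cells, read out with a cell viability assay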
Description: SANGER: Inhibition of human MC116 cell growth in a cell viability assay.

[24] = tested on: SKG-IIIa; format: functional, cell-based, Homo sapiens; details: Homo sapiens, SKG-IIIa;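 further: cell growth inhibition, read out with a cell viability assay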
Description: SANGER: Inhibition of human SKG-IIIa cell growth in a cell viability assay.

[25] = tested on: OS-RC-2; format: functional, cell-based, Homo sapiens; details: Homo sapiens, OS-RC-2;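 further: growth inhibition of human OS-RC-2 cells, measured by a cell viability assay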
Description: SANGER: Inhibition of human OS-RC-2 cell growth in a cell viability assay.

[26] = tested on: WM-115; format: functional, cell-based, Homo sapiens; details: Homo sapiens, WM-115
Description: SANGER: Inhibition of human WM-115 cell growth in a cell viability assay.

[27] = tested on: MOLT-16; format: functional, cell-based; details: Homo sapiens;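 further: growth inhibition of human MOLT-16 cells, read out with a cell viability assay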
Description: SANGER: Inhibition of human MOLT-16 cell growth in a cell viability assay.

[28] = tested on: HCC38; format: functional, cell-based, Homo sapiens; details: Homo sapiens, HCC38;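 further: cell viability assay on the human HCC38 cell line, with IC50 marking the concentration that inhibits cell growth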
Description: SANGER: Inhibition of human HCC38 cell growth in a cell viability assay.

[29] = tested on: NCI-H292; format: functional, cell-based, Homo sapiens; details: Homo sapiens, NCI-H292;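 further: growth inhibition of NCI-H292 cells, read out with a cell viability assay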
Description: SANGER: Inhibition of human NCI-H292 cell growth in a cell viability assay.

[30] = tested on: CWR22R; format: functional, cell-based, Homo sapiens; details: Homo sapiens, 22Rv1;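 further: growth inhibition of 22Rv1 cells, read out with a cell viability assay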
Description: SANGER: Inhibition of human 22RV1 cell growth in a cell viability assay.

[31] = tested on: HCC70; format: functional, cell-based, Homo sapiens; details: Homo sapiens, HCC70;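 further: cell viability assay measuring how strongly the compound suppresses proliferation of HCC70 cells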
Description: SANGER: Inhibition of human HCC70 cell growth in a cell viability assay.

[32] = tested on: NOS-1; format: functional, cell-based, Homo sapiens; details: Homo sapiens, NOS-1;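 further: growth inhibition of the human NOS-1 cell line, read out with a cell viability assay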
Description: SANGER: Inhibition of human NOS-1 cell growth in a cell viability assay.

[33] = tested on: U-118-MG; format: functional, cell-based, Homo sapiens; details: Homo sapiens, U-118-MG
Description: SANGER: Inhibition of human U-118-MG cell growth in a cell viability assay.

[34] = tested on: MeWo; format: functional, cell-based, Homo sapiens; details: Homo sapiens, MeWo;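 further: growth inhibition of MeWo cells, determined by a cell viability readout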
Description: SANGER: Inhibition of human Mewo cell growth in a cell viability assay.

[35] = tested on: KARPAS-45; format: functional, cell-based; details: Homo sapiens;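 further: inhibition of cell line growth, read out through a viability assay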
Description: SANGER: Inhibition of human KARPAS-45 cell growth in a cell viability assay.

[36] = tested on: LB1047-RCC; format: functional, cell-based, Homo sapiens; details: Homo sapiens, LB1047-RCC;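 further: inhibition of cell growth, determined with a cell viability assay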
Description: SANGER: Inhibition of human LB1047-RCC cell growth in a cell viability assay.

[37] = tested on: CTV-1; format: functional, cell-based; details: Homo sapiens;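 further: growth inhibition of the cell line, read out with a cell viability assay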
Description: SANGER: Inhibition of human CTV-1 cell growth in a cell viability assay.

[38] = tested on: MZ1-PC; format: functional, cell-based, Homo sapiens; details: Homo sapiens, MZ1-PC;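 further: cell viability assay measuring growth inhibition of human MZ1-PC cells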
Description: SANGER: Inhibition of human MZ1-PC cell growth in a cell viability assay.

[39] = tested on: MPP-89; format: functional, cell-based, Homo sapiens; details: Homo sapiens, MPP-89;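 further: growth inhibition of human MPP-89 cells, read out with a cell viability assay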
Description: SANGER: Inhibition of human MPP-89 cell growth in a cell viability assay.

[40] = tested on: HuP-T3; format: functional, cell-based, Homo sapiens; details: Homo sapiens, HuP-T3;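 further: HuP-T3 cell growth inhibition, read out with a cell viability assay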
Description: SANGER: Inhibition of human HuP-T3 cell growth in a cell viability assay.

[41] = tested on: TCC-SUP; format: functional, cell-based, Homo sapiens; details: Homo sapiens, TCC-SUP;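 further: growth inhibition of TCC-SUP cells, read out with a cell viability assay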
Description: SANGER: Inhibition of human TCCSUP cell growth in a cell viability assay.

[42] = tested on: SiHa; format: functional, cell-based, Homo sapiens; details: Homo sapiens, SiHa;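 further: Viability-based readout of growth inhibition in SiHa cells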
Description: SANGER: Inhibition of human SiHa cell growth in a cell viability assay.

[43] = tested on: KOSC-2; format: functional, cell-based, Homo sapiens; details: Homo sapiens, KOSC-2;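 further: growth inhibition of KOSC-2 cells, read out by a cell viability assay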
Description: SANGER: Inhibition of human KOSC-2 cell growth in a cell viability assay.

[44] = tested on: MLMA; format: functional, cell-based, Homo sapiens; details: Homo sapiens, MLMA;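 further: growth inhibition of MLMA cells (human), determined through a cell viability readout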
Description: SANGER: Inhibition of human MLMA cell growth in a cell viability assay.

[45] = tested on: HO-1-N-1; format: functional, cell-based, Homo sapiens; details: Homo sapiens, HO-1-N-1;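 further: growth inhibition of human HO-1-N-1 cells, read out with a cell viability assay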
Description: SANGER: Inhibition of human HO-1-N-1 cell growth in a cell viability assay.

[46] = tested on: SF-295; format: functional, cell-based, Homo sapiens; details: Homo sapiens, SF-295; read-out: IC50;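 further: growth inhibition of SF-295 cells, read out with a cell viability assay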
Description: SANGER: Inhibition of human SF295 cell growth in a cell viability assay.

[47] = tested on: DMS-273; format: functional, cell-based, Homo sapiens; details: Homo sapiens, DMS-273
Description: SANGER: Inhibition of human DMS-273 cell growth in a cell viability assay.

[48] = tested on: RXF 393; format: functional, cell-based; details: Homo sapiens;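 further: growth inhibition of human RXF 393 cells, read out with a cell viability assay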
Description: SANGER: Inhibition of human RXF393 cell growth in a cell viability assay.

[49] = tested on: KP-N-YS; format: functional, cell-based; details: Homo sapiens;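 further: cell viability assay measuring inhibition of cell line growth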
Description: SANGER: Inhibition of human KP-N-YS cell growth in a cell viability assay.

[50] = tested on: 8-MG-BA; format: functional, cell-based, Homo sapiens; details: Homo sapiens, 8-MG-BA;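 further: growth inhibition of 8-MG-BA cells, read out with a cell viability assay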
Description: SANGER: Inhibition of human 8-MG-BA cell growth in a cell viability assay.

[51] = tested on: HH; format: functional, cell-based; details: Homo sapiens
Description: SANGER: Inhibition of human HH cell growth in a cell viability assay.

Measured: IC50

CCOc1nc(NC(=O)Cc2cc(OC)ccc2OC)cc(N)c1C#N
> 10 µM: all assays above

CC(=O)O[C@@H]1[C@@H](OC(C)=O)[C@@H](O)[C@H](Oc2c(-c3ccc(O)cc3)oc3cc(O)cc(O)c3c2=O)O[C@H]1C
not listed: [42]
> 10 µM: all other assays above
